Assay results: patent US12522635B2, “Amyloid peptide variants” (Loyola Marymount University, priority 2019, dated 2026)
“Also recorded” adds a separate entry of the source. Where a SMILES comes first, the peptide text is derived from it. Bridges are numbered along the chain shown (N, C = ends).

Assays:
human IAPP (hIAPP) [1] = molecular target: T1, human IAPP (hIAPP) (Homo sapiens, UniProt P10997); experiment: Thioflavin T binding assay of hIAPP aggregation when mixed with IAPP peptides; assay type: biochemical; conditions: peptide mixed with hIAPP; no single assay (thioflavin T and AFM)
T1 construct: This 37 amino acid polypeptide is co-secreted from pancreatic β-islet cells with insulin
T1 sequence (P10997 34-70 limits assumed): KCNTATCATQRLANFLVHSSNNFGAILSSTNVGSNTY
In short: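 37 μM hIAPP plus 75 μM animal IAPP (2:1) in 20 mM Tris pH 7.4, shaken 200 rpm at 37 °C for 40 min. Aliquots were mixed into 50.0 μM thioflavin T and emission read at 488 nm, with fibrils checked by AFM. Significance vs hIAPP alone was determined by t-test.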

human IAPP (hIAPP) [2] = molecular target: T1, human IAPP (hIAPP); experiment: Atomic force microscopy (AFM) of hIAPP fibril formation when mixed with IAPP peptides; assay type: biochemical; conditions: for inhibition of hIAPP fibril formation, AFM: 37 μM hIAPP and 75 μM peptide, 37° C. with shaking for 40 minutes
In short: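 hIAPP (37–40 μM) alone or mixed with other IAPP peptides (equimolar or about 2:1 peptide:hIAPP) was shaken at 37° C for 30–40 minutes. Samples deposited on mica, washed with water, dried and imaged by AFM in A/C mode; scans […], raw unflattened data.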

RIN-m cells = experiment: MTT viability assay, peptide alone or mixed with hIAPP; assay type: cell-based; conditions: for rescue / protection of cells from hIAPP toxicity (words): hIAPP mixed with peptide 1:1, MTT assay
In short: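 RIN-m cells were exposed to hIAPP alone, each animal IAPP peptide alone, or hIAPP mixed with an animal IAPP for 46 h at 37° C in RPMI-1640 with 10% FBS. Viability by MTT reduction (2 h), formazan solubilized in SDS/DMF and read at 570 nm, relative to untreated cells as 100%.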

[3] = AFM of peptide alone (self-aggregation / fibril formation); assay type: physicochemical; conditions: for aggregation propensity relative to comparator: comparison of pramlintide with the IAPP peptides
Description: Samples labeled with hIAPP contained 40 μM hIAPP. The sample with pramlintide and hIAPP contained a 2:1 molar mixture (80 μM Pramlintide mixed with 40 μM hIAPP). The samples with raccoon IAPP and Pramlintide alone contained 40 μM of the indicated peptides. Each sample was incubated for 40 minutes at 37° C. with shaking; conditions known to promote hIAPP amyloid formation. All scans show raw data with no flattening and are […].
Samples of hIAPP with or without animal IAPP were prepared as described in Example 1 and were then incubated with shaking at 37° C. for 40 minutes. After this incubation, 17 μL of each sample was deposited onto freshly cleaved mica. Samples were incubated for 5 minutes at room temperature before washing with 200 μL sterile water. After drying, the samples were scanned using an MFP-3D atomic force microscope (Asylum Research) set on A/C mode and a 240 m silicon cantilever (Olympus).
Many of the animal IAPP variants are known to likewise form fibrils and yield amyloid-plaques when scanned via AFM. […] This is in spite of the fact that all of these IAPP peptides (except polar bear IAPP) are known to aggregate and form fibrils themselves under these or similar conditions

human IAPP (hIAPP) [4] = molecular target: T1, human IAPP (hIAPP); experiment: hIAPP aggregation in the presence of human insulin; assay type: biochemical
[5] = following injection; Wijesekara et al. 2015; cited from earlier work
human IAPP = molecular target: T2, human IAPP (Homo sapiens, UniProt P10997); conditions: cited from earlier work
T2 sequence (P10997 34-70 limits assumed): T1 sequence (P10997 34-70 limits assumed)

Molecule | inhibition of hIAPP aggregation (summary statement) (human IAPP (hIAPP) [1]) | inhibition of hIAPP fibril formation, AFM (human IAPP (hIAPP) [2]) | rescue / protection of cells from hIAPP toxicity (words) (RIN-m cells) | aggregation propensity relative to comparator [3] | prevention of hIAPP aggregation in the presence of human insulin (human IAPP (hIAPP) [4]) | prevention of hIAPP aggregation, AFM (FIG. 5) (human IAPP (hIAPP) [2]; 40 μM hIAPP, pramlintide 80 μM (2:1), 40 minutes at 37° C. with shaking) | toxicity of peptide to cells (RIN-m cells; peptide alone, MTT assay, pancreatic (RIN-m) cells) | aggregation / fibril formation of peptide alone, AFM ([3]; peptide alone, incubated 40 minutes at 37° C. with shaking) | fasting blood glucose levels and glucose tolerance [5] | decrease of cytotoxicity (literature) (human IAPP) | inhibition of amyloid fibril formation (literature) (human IAPP)
CC[C@H](C)[C@H](NC(=O)[C@H](C)NC(=O)CNC(=O)[C@@H](NC(=O)[C@H](CC(N)=O)NC(=O)[C@H](CO)NC(=O)[C@H](CO)NC(=O)[C@H](CO)NC(=O)[C@H](CCCNC(=N)N)NC(=O)[C@@H](NC(=O)[C@H](CC(C)C)NC(=O)[C@H](Cc1ccccc1)NC(=O)[C@H](CC(=O)O)NC(=O)[C@H](C)NC(=O)[C@H](CC(C)C)NC(=O)[C@H](CCCNC(=N)N)NC(=O)[C@H](CCC(N)=O)NC(=O)[C@@H](NC(=O)[C@@H](NC(=O)[C@@H]1CSSC[C@H](NC(=O)[C@@H](N)CCCCN)C(=O)N[C@@H](CC(N)=O)C(=O)N[C@@H]([C@@H](C)O)C(=O)N[C@@H](C)C(=O)N[C@@H]([C@@H](C)O)C(=O)N1)C(C)C)[C@@H](C)O)C(C)C)[C@@H](C)CC)C(=O)N[C@@H](Cc1ccc(O)cc1)C(=O)N[C@@H](CO)C(=O)N1CCC[C@H]1C(=O)N[C@H](C(=O)N[C@@H](CC(N)=O)C(=O)N[C@H](C(=O)NCC(=O)N[C@@H](CO)C(=O)N[C@@H](CC(N)=O)C(=O)N[C@H](C(=O)N[C@@H](Cc1ccc(O)cc1)C(N)=O)[C@@H](C)O)C(C)C)[C@@H](C)O [chicken IAPP] (H-KCNTATCVTQRLADFLVRSSSNIGAIYSPTNVGSNTY-NH2; disulfide 2-7 (inferred); N-terminus and C-terminus assumed) | able to inhibit such aggregation; also recorded: inhibit aggregate formation by hIAPP | significant ability to prevent fiber formation | significant increase in cell viability; also recorded: rescue living cells from the toxic effects of hIAPP | less aggregation-prone than Pramlintide | prevent hIAPP aggregation in the presence of human insulin | – | – | – | – | – | –
CC[C@H](C)[C@H](NC(=O)[C@H](C)NC(=O)CNC(=O)[C@H](CC(C)C)NC(=O)[C@H](CC(N)=O)NC(=O)[C@H](CC(N)=O)NC(=O)[C@H](CO)NC(=O)[C@H](CO)NC(=O)[C@H](CCCNC(=N)N)NC(=O)[C@H](CC(C)C)NC(=O)[C@H](CC(C)C)NC(=O)[C@H](Cc1ccccc1)NC(=O)[C@H](CC(N)=O)NC(=O)[C@H](C)NC(=O)[C@H](CC(C)C)NC(=O)[C@H](CCCNC(=N)N)NC(=O)[C@H](CCC(N)=O)NC(=O)[C@@H](NC(=O)[C@@H](NC(=O)[C@@H]1CSSC[C@H](NC(=O)[C@@H](N)CCCCN)C(=O)N[C@@H](CC(N)=O)C(=O)N[C@@H]([C@@H](C)O)C(=O)N[C@@H](C)C(=O)N[C@@H]([C@@H](C)O)C(=O)N1)C(C)C)[C@@H](C)O)C(=O)N[C@@H](CC(C)C)C(=O)N[C@@H](CO)C(=O)N1CCC[C@H]1C(=O)N[C@H](C(=O)N[C@@H](CC(N)=O)C(=O)N[C@H](C(=O)NCC(=O)N[C@@H](CO)C(=O)N[C@@H](CC(N)=O)C(=O)N[C@H](C(=O)N[C@@H](Cc1ccc(O)cc1)C(N)=O)[C@@H](C)O)C(C)C)[C@@H](C)O [raccoon IAPP] (H-KCNTATCVTQRLANFLLRSSNNLGAILSPTNVGSNTY-NH2; disulfide 2-7 (inferred); N-terminus and C-terminus assumed) | able to inhibit such aggregation; also recorded: inhibit aggregate formation by hIAPP | significant ability to prevent fiber formation | protected the RIN-m cells from the toxic effects of hIAPP; also recorded: significant increase in cell viability; also recorded: rescue living cells from the toxic effects of hIAPP | less aggregation-prone than Pramlintide | prevent hIAPP aggregation in the presence of human insulin | prevented hIAPP from aggregating | some cellular toxicity | did not aggregate | – | – | –
ANFLVH (Islet amyloid polypeptide; UniProt P10997 46-51, looked up, fragment) [peptide derived from human IAPP, from Wijesekara et al. 2015] | – | – | – | – | – | – | – | – | improve fasting blood glucose levels and glucose tolerance | decrease cytotoxicity | inhibit amyloid fibril formation
